Results published in US10294202B2, “Pyrrolidinones as herbicides” (FMC Corporation, priority 2013, dated 2019).

Legend:
Assay in all cases: Test A pre-/postemergence herbicide test
[1] = system: barnyardgrass; format: in vivo, Echinochloa crus-galli
From the text: (§1) Seeds of plant species selected from bamyardgrass (Echinochloa crus-galli), kochia (Kochia scoparia), ragweed (common ragweed, Ambrosia elatior), ryegrass, Italian (Italian ryegrass, Lolium multiflorum), crabgrass, large (large crabgrass Digitaria sanguinalis), giant foxtail (Setaria faberii), morningglory (Ipomoea spp.), pigweed (Amaranthus retroflexus), velvetleaf (Abutilon theophrasti), wheat (Triticum aestivum), and corn (Zea mays) were planted into a blend of loam soil and sand and treated preemergence with a directed soil spray using test chemicals formulated in a non-phytotoxic solvent mixture which included a surfactant. At the same time, plants selected from these crop and weed species and also blackgrass (Alopecurus myosuroides), and galium (catchweed bedstraw, Galium aparine) were planted in pots containing the same blend of loam soil and sand and treated with postemergence applications of test chemicals formulated in the same manner. Plants ranged in height from 2 to 10 cm and were in the one- to two-leaf stage for the postemergence treatment. Treated plants and untreated controls were maintained in a greenhouse for approximately 10 days, after which time all treated plants were compared to untreated controls and visually evaluated for injury. Plant response ratings, summarized in Table A, are based on a 0 to 100 scale where 0 is no effect and 100 is complete control. A dash (-) response means no test result.

[2] = system: velvetleaf; format: in vivo, Abutilon theophrasti
In short: (§2)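 Greenhouse pot test with pre- and postemergence application of surfactant-containing solvent formulations. Postemergence plants were 2–10 cm, one- to two-leaf stage. Response scored visually after ~10 days, 0 (no effect) to 100 (complete control).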

[3] = system: corn; format: in vivo, Zea mays
In short: as §2

[4] = system: wheat; format: in vivo, Triticum aestivum
From the text: as §1

[5] = system: crabgrass, large; format: in vivo, Digitaria sanguinalis
From the text: as §1

[6] = system: giant foxtail; format: in vivo, Setaria faberii
From the text: as §1

[7] = system: morningglory; format: in vivo, Ipomoea spp.
From the text: as §1

[8] = system: pigweed; format: in vivo, Amaranthus retroflexus
In short: as §2

[9] = Postemergence, 1000 g ai/ha, 0 to 100 scale (0 no effect, 100 complete control)
[10] = preemergence, 1000 g ai/ha, 0 to 100 scale (0 no effect, 100 complete control)
[11] = preemergence, 1000 g ai/ha, 0 to 100 scale
[12] = Postemergence, 125 g ai/ha, 0 to 100 scale, 0 no effect, 100 complete control
[13] = Postemergence, 500 g ai/ha, 0 to 100 scale (0 no effect, 100 complete control)
[14] = Preemergence, 125 g ai/ha, visual rating on 0 to 100 scale (0 no effect, 100 complete control)
[15] = preemergence, 500 g ai/ha, 0 to 100 scale
[16] = Preemergence, 1000 g ai/ha, visual rating on 0 to 100 scale (0 no effect, 100 complete control), approx. 10 days
[17] = Postemergence, 125 g ai/ha, visual rating on 0 to 100 scale (0 no effect, 100 complete control), approx. 10 days

Cn1ccnc1C1CNC(=O)C1C(=O)Nc1cccc(F)c1F (racemic) [Compound 252]
Plant response rating, Barnyardgrass [1, 9]: 0 | Plant response rating, Barnyardgrass [1, 10]: 20 | Plant response rating, Velvetleaf [2, 9]: 0 | Plant response rating, Velvetleaf [2, 11]: 0 | Plant response rating, Corn [3, 9]: 0 | Plant response rating, Corn [3, 11]: 0 | Plant response rating, Wheat [4, 9]: 0 | Plant response rating, Wheat [4, 11]: 0 | Plant response rating, Crabgrass, Large [5, 9]: 0 | Plant response rating, Crabgrass, Large [5, 11]: 40 | Plant response rating, Foxtail, Giant [6, 9]: 0 | Plant response rating, Foxtail, Giant [6, 11]: 20 | Plant response rating, Morningglory [7, 9]: 0 | Plant response rating, Morningglory [7, 11]: 0 | Plant response rating, Pigweed [8, 9]: 0

O=C1NCC(c2cc(Cl)cc(Cl)c2)C1C(=O)Nc1ccccc1F (racemic) [Compounds 90]
Plant response rating, Barnyardgrass [1, 12]: 30 | Plant response rating, Barnyardgrass [1, 13]: 70 | Barnyardgrass plant response rating [1, 14]: 30 | Plant response rating, Barnyardgrass ([1]; preemergence, 500 g ai/ha, 0 to 100 scale (0 no effect, 100 complete control)): 70 | Plant response rating, Velvetleaf [2, 12]: 0 | Plant response rating, Velvetleaf [2, 13]: 0 | Velvetleaf plant response rating [2, 14]: 0 | Plant response rating, Velvetleaf [2, 15]: 0 | Plant response rating, Corn [3, 12]: 0 | Plant response rating, Corn [3, 13]: 30 | Corn plant response rating [3, 14]: 0 | Plant response rating, Corn [3, 15]: 0 | Plant response rating, Wheat [4, 12]: 0 | Plant response rating, Wheat [4, 13]: 0 | Wheat plant response rating [4, 14]: 0 | Plant response rating, Wheat [4, 15]: 0 | Plant response rating, Crabgrass, Large [5, 12]: 50 | Plant response rating, Crabgrass, Large [5, 13]: 70 | Crabgrass, Large plant response rating [5, 14]: 70 | Plant response rating, Crabgrass, Large [5, 15]: 80 | Plant response rating, Foxtail, Giant [6, 12]: 40 | Plant response rating, Foxtail, Giant [6, 13]: 70 | Foxtail, Giant plant response rating [6, 14]: 60 | Plant response rating, Foxtail, Giant [6, 15]: 70 | Plant response rating, Morningglory [7, 12]: 0 | Plant response rating, Morningglory [7, 13]: 0 | Morningglory plant response rating [7, 14]: 0 | Plant response rating, Morningglory [7, 15]: 0 | Plant response rating, Pigweed [8, 12]: 0 | Plant response rating, Pigweed [8, 13]: 20 | Pigweed plant response rating [8, 14]: 0 | Plant response rating, Pigweed [8, 15]: 0

O=C1NCC(c2ccc(F)c(F)c2)C1C(=O)Nc1ccncc1F (centres unmarked) [Compound 22]
Plant response rating, Barnyardgrass [1, 9]: 0 | Plant response rating, Barnyardgrass [1, 16]: 0 | Plant response rating, Velvetleaf [2, 9]: 0 | Plant response rating, Velvetleaf [2, 16]: 0 | Plant response rating, Corn [3, 9]: 0 | Plant response rating, Corn [3, 16]: 0 | Plant response rating, Wheat [4, 9]: 0 | Plant response rating, Wheat [4, 16]: 0 | Plant response rating, Crabgrass, Large [5, 9]: 0 | Plant response rating, Crabgrass, Large [5, 16]: 70 | Plant response rating, Foxtail, Giant [6, 9]: 0 | Plant response rating, Foxtail, Giant [6, 16]: 30 | Plant response rating, Morningglory [7, 9]: 0 | Plant response rating, Morningglory [7, 16]: 0 | Plant response rating, Pigweed [8, 9]: 0

CN(C(=O)C1C(=O)NCC1c1ccc(F)c(F)c1)c1ccccc1F (centres unmarked) [Compound 24]
Plant response rating, Barnyardgrass [1, 9]: 0 | Plant response rating, Barnyardgrass [1, 16]: 0 | Plant response rating, Velvetleaf [2, 9]: 0 | Plant response rating, Velvetleaf [2, 16]: 60 | Plant response rating, Corn [3, 9]: 0 | Plant response rating, Corn [3, 16]: 0 | Plant response rating, Wheat [4, 9]: 0 | Plant response rating, Wheat [4, 16]: 0 | Plant response rating, Crabgrass, Large [5, 9]: 30 | Plant response rating, Crabgrass, Large [5, 16]: 70 | Plant response rating, Foxtail, Giant [6, 9]: 0 | Plant response rating, Foxtail, Giant [6, 16]: 40 | Plant response rating, Morningglory [7, 9]: 0 | Plant response rating, Morningglory [7, 16]: 0 | Plant response rating, Pigweed [8, 9]: 0 | Plant response rating, Pigweed [8, 16]: 0

C#CCN(C(=O)C1C(=O)NCC1c1ccc(F)c(F)c1)c1ccccc1[N+](=O)[O-] (centres unmarked) [Compound 265]
Plant response rating, Barnyardgrass [1, 9]: 0 | Plant response rating, Barnyardgrass [1, 10]: 0 | Plant response rating, Velvetleaf [2, 9]: 0 | Plant response rating, Velvetleaf [2, 11]: 0 | Plant response rating, Corn [3, 9]: 0 | Plant response rating, Corn [3, 11]: 0 | Plant response rating, Wheat [4, 9]: 0 | Plant response rating, Wheat [4, 11]: 0 | Plant response rating, Crabgrass, Large [5, 9]: 0 | Plant response rating, Crabgrass, Large [5, 11]: 0 | Plant response rating, Foxtail, Giant [6, 9]: 0 | Plant response rating, Foxtail, Giant [6, 11]: 0 | Plant response rating, Morningglory [7, 9]: 0 | Plant response rating, Morningglory [7, 11]: 0 | Plant response rating, Pigweed [8, 9]: 0 | Plant response rating, Pigweed [8, 11]: 0

C=CCN(C(=O)C1C(=O)NCC1c1ccc(F)c(F)c1)c1ccccc1[N+](=O)[O-] (centres unmarked) [Compound 266]
Plant response rating, Barnyardgrass [1, 9]: 0 | Plant response rating, Barnyardgrass [1, 10]: 0 | Plant response rating, Velvetleaf [2, 9]: 0 | Plant response rating, Velvetleaf [2, 11]: 0 | Plant response rating, Corn [3, 9]: 0 | Plant response rating, Corn [3, 11]: 0 | Plant response rating, Wheat [4, 17]: 40 | Plant response rating, Wheat [4, 9]: 0 | Plant response rating, Wheat [4, 11]: 0 | Plant response rating, Crabgrass, Large [5, 9]: 0 | Plant response rating, Crabgrass, Large [5, 11]: 0 | Plant response rating, Foxtail, Giant [6, 9]: 0 | Plant response rating, Foxtail, Giant [6, 11]: 0 | Plant response rating, Morningglory [7, 17]: 20 | Plant response rating, Morningglory [7, 9]: 0 | Plant response rating, Morningglory [7, 11]: 0 | Plant response rating, Pigweed [8, 17]: 40 | Plant response rating, Pigweed [8, 9]: 0 | Plant response rating, Pigweed [8, 11]: 0
